Measured values: patent publication US10085955B2, “Methods and compositions for treatment of demyelinating diseases” (Pathologica LLC, priority 2013, dated 2018)
Where two headings read alike, the source gives them in different places.

Assays:
[1] = set-up: species or system DBA/1 mice; settings: male, DBA/1, mouse, in vivo
Procedure: Twenty-four male DBA/1 mice weighing 19.5-24.7 g and aged 7-9 weeks administered the test article, MGBG, as either a single bolus intravenous dose via a lateral tail vein of 1 mg/kg (Group 1, n=12) or as a single oral gavage dose of 10 mg/kg (Group 2, n=12). Each dose group consisted of 4 cohorts of 3 animals each. Group 1 was sampled at 5, 15, and 30 minutes after dosing; and 1, 2, 4, 8, and 24 hours after dosing. Group 2 was sampled at 1, 2, 4, 8, 12, 24, and 36 hours after dosing. Starting with the first time point, a new cohort was sampled at each successive time point up to the 1-hour (Group 1) or […] (Group 2) time point. The order of sampling among the cohorts was repeated for the subsequent time points (some cohorts may have been bled only once). The second bleed for each cohort was terminal. Animals were sacrificed via CO2 inhalation anesthesia after final blood collection.
The samples were centrifuged under refrigerated conditions following completion of sample collection at each interval. The resulting plasma was separated and stored frozen at approximately −70° C. until analysis. Analysis was performed by LC/MS/MS. Pharmacokinetic analyses were performed on the mean MGBG plasma concentration versus time data using the non-compartmental approach (linear trapezoidal rule for AUC calculations). The WinNonlin sparse sampling tool was used for PK calculations.
The second method used to convert the efficacious 60 mg/kg/day dose in mice to an equivalent dose in humans was based more directly on allometric scaling. Data from an MGBG pharmacokinetic study consisting of a 10 mg/kg oral dose in mice was modeled in a simulation to determine the theoretical AUCINF value for a dosing regimen of 30 mg/kg PO BID, which was 9050 h*ng/mL. Next, predicted human clearance values as determined by single- and multi-species allometric scaling were used to estimate doses likely to produce an exposure in humans (AUCINF) similar to that of the 60 mg/kg/day in mice. […] Using multi-species allometric scaling, the predicted human equivalent dose is about 4.2 mg/kg/day.

[2] = system: MOG-induced experimental autoimmune encephalomyelitis (EAE); assay: First MOG EAE protocol (murine multiple sclerosis model); assay type: in vivo, C57BL/6 mice
Source text: An experimental murine model of multiple sclerosis employing a myelin oligodendrocyte glycoprotein (MOG) peptide to induce experimental autoimmune encephalomyelitis (EAE) was employed to determine the efficacy of MGBG in preventing and treating that disease. Because of its many similarities to MS, EAE is commonly used to study pathogenesis of autoimmunity, CNS inflammation, demyelination, cell trafficking, and tolerance induction. EAE is characterized by paralysis (in some models the paralysis is remitting-relapsing), CNS inflammation and demyelination. EAE is mediated primarily by dendritic cells, myelin-specific T cells (e.g. Th1 and Th17), and M1 macrophages. B cells may also play a role in some models of EAE. Body weight also tracks disease progression. EAE is induced in C57BL/6 mice by immunization with MOG35-55 or MOG1-125 in CFA emulsion followed by administration of pertussis toxin (PTX) in PBS. The emulsion provides antigen which initiates expansion and differentiation of MOG-specific autoimmune T cells. PTX enhances EAE development by providing additional adjuvant and facilitating entrance of autoimmune T cells into the CNS.
Chronic EAE develops in C57BL/6 mice after immunization with an emulsion of MOG35-55/CFA or MOG1-125/CFA followed by injection of pertussis toxin. This model is used to test the potential of compounds to prevent or mitigate EAE disease. It can be run with the compound dosed from the time of immunization (prophylactic treatment), or with the aim of reversing the course of disease and facilitating recovery by dosing the compound from the time of EAE onset (therapeutic treatment). The model uses female C57BL/6 mice of age 10 to 14 weeks at the start of the study. Typically, EAE develops 8-18 days after immunization. EAE development is usually followed for 4 weeks (28 days) after immunization.
In prophylactic studies, treatment begins before disease onset, at the time of immunization and group assignment. Mice are assigned to treatment groups in a balanced manner to achieve groups with similar distributions of body weights. Prophylactic studies assess if treatment will affect the course of disease both before and after the first clinical signs of EAE. To compensate for the stress of treatment in prophylactic treatment studies and achieve the target disease severity, EAE may be induced with a higher dose of pertussis toxin than used in therapeutic studies. The dose of pertussis toxin is based on expected stress due to dosing (route, frequency, and formulation of vehicle).
Clinically, EAE progression is scored on a scale of 0 to 5, wherein each score represents the following clinical observations:
Inflammatory foci of approximately 20 cells were counted in each H&E stained section. When inflammatory infiltrates consisted of more than 20 cells, an estimate was made of how many foci of 20 cells were present.
The demyelination score represents an estimate of demyelinated area for each section as follows:
Unless otherwise noted, statistical analysis was performed as follows: disease incidence compared using chi-square test; mean day of EAE onset, change in body weight, and number of apoptotic cells compared using 2-tailed Student's t-test; median day of EAE onset compared using Wilcoxon's survival test; mean maximum score (MMS), end score, and demyelination scores (LFB and H&E) compared using Wilcoxon's non-parametric test.
Ten week old female C57BL/6 mice weighing 18-23 g (Taconic Farms) were divided into four groups: mock immunized (n=3) and three MOG-immunized groups receiving MGBG at 30 mpk BID (as the di-HCl monohydrate with a correction factor of 1.49), fingolimod (FTY720) at 3 mpk QD with a second mock vehicle dose, or 0.9% saline vehicle BID (n=12 each). […]

CC(/C=N/NC(=N)N)=N\NC(=N)N [MGBG, 1,1′ [methylethanediylidene]dinitrilodiguanidine]
Clobs ([1]; iv, 1 mg/kg): 49.6 mL/min/kg | VSSobs ([1]; iv, 1 mg/kg): 38.3 L/kg | Clobs ([1]; po, 10 mg/kg): 6.68 mL/min/kg | Vd ([1]; po, 10 mg/kg): 38.3 L/kg | mean clinical score (scale 0 to 5) ([2]; first 28-day study, MGBG 30 mpk BID, fingolimod 3 mpk QD, throughout/duration of experiment): below 1 | body weight, mean percent of baseline (study start) ([2]; first study, day 11): ~115% | body weight, mean percent of baseline (study start) ([2]; first study, day 24): about 108% | spinal cord histopathology (neuroinflammation, demyelination, apoptosis) ([2]; first study, day 28): reduces histopathological signs of MS | day first clinical signs became evident ([2]; first study, MGBG 30 mpk BID (vehicle day 10)): 15 days
